Source: patent US12527774B2, “Estrogen-related receptor alpha modulators” (LEAD PHARMA HOLDING B.V., priority 2019, dated 2026)

Molecular target: ERRα ligand binding domain (ERRα-LBD) (Homo sapiens (Human), UniProt P11474)
Assay: ERRα AlphaScreen Assay
Format: biochemical
Conditions: disruption of binding of ERRα-LBD protein to biotin-PGC1α-3 co-activator peptide
Procedure, shortened: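 His-SUMO-tagged ERRα-LBD from E. coli (0.81 nM) preincubated 1 h at room temperature with compound, streptavidin donor and Ni-chelate acceptor beads (10 μg/mL each), then 2 h with 15 nM biotin-PGC1α-3 peptide (aa 202–220). Buffer: 50 mM Tris-HCl pH 7.5, 100 mM NaCl, 5 mM TCEP, 1% DMSO. Four-parameter IC50; mean pIC50 of replicate values.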

Sequence of ERRα ligand binding domain (ERRα-LBD) (P11474 193-421): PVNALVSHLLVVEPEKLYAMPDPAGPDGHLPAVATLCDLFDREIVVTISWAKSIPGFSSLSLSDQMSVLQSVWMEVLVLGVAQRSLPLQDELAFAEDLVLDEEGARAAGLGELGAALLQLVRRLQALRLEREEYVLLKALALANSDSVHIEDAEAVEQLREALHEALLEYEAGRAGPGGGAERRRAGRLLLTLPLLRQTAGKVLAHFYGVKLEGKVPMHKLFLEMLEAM

mean pIC50 | Structure (SMILES)
≥ 8 | COc1cc(C2CC(=O)Nc3n[nH]cc32)ccc1OCc1ccc(N(C)C)cc1C(F)(F)F (stereo not shown) [Example 138, 4-(4-{[4-(dimethylamino)-2-(trifluoromethyl)phenyl]methoxy}-3-methoxyphenyl)-2H,4H,5H,6H, 7H-pyrazolo[3,4-b]pyridin-6-one]
≥ 8 | COc1cc(C2CC(=O)Nc3n[nH]cc32)ccc1COc1ccc(C(F)F)cc1C(F)F (single isomer, unassigned; (-)) [Example 218, (−)-4-(4-{[2,4-bis(difluoromethyl)phenoxy]methyl}-3-methoxyphenyl)-2H,4H,5H,6H,7H-pyrazolo[3,4-b]pyridin-6-one]

Same assay, conditions: disruption of binding of ERRα-LBD protein to biotin-PGC1α-3 co-activator peptide; read-out: mean pIC50 (converted)

IC50 | Structure (SMILES)
100 to 1000 nM | COc1cc(C2CC(=O)Nc3n[nH]cc32)ccc1COc1ccc(C)cc1C (single isomer, unassigned; (+)) [Example 219, (+)-4-{4-[(2,4-dimethylphenoxy)methyl]-3-methoxyphenyl}-2H,4H,5H,6H,7H-pyrazolo[3,4-b]pyridin-6-one]
100 to 1000 nM | COc1cc(C2CC(=O)Nc3n[nH]cc32)ccc1OCc1ccc(C(C)=O)cc1C(F)(F)F (single isomer, unassigned; (+)) [Example 199, (+)-4-(4-{[4-acetyl-2-(trifluoromethyl)phenyl]methoxy}-3-methoxyphenyl)-2H,4H,5H,6H,7H-pyrazolo[3,4-b]pyridin-6-one]
100 to 1000 nM | COc1cc(C2CC(=O)Nc3n[nH]cc32)ccc1OCc1cccc(OCCO)c1C(F)(F)F (stereo not shown) [Example 160, 4-(4-{[3-(2-hydroxyethoxy)-2-(trifluoromethyl)phenyl]methoxy}-3-methoxyphenyl)-2H,4H,5H,6H,7H-pyrazolo[3,4-b]pyridin-6-one]
10 to 100 nM | COc1cc(C2CC(=O)Nc3c[nH]cc32)ccc1COc1ccc(C(F)(F)F)cc1C(F)(F)F (stereo not shown) [Example 190, 4-(4-{[2,4-bis(trifluoromethyl)phenoxy]methyl}-3-methoxyphenyl)-1H,2H,3H,4H, 6H-pyrrolo[3,4-b]pyridin-2-one]
10 to 100 nM | COc1cc(C2CC(=O)Nc3n[nH]cc32)ccc1COc1ccc(C)cc1C(F)(F)F (single isomer, unassigned; (+)) [Example 213, (+)-4-(3-methoxy-4-{[4-methyl-2-(trifluoromethyl)phenoxy]methyl}phenyl)-2H,4H,5H,6H,7H-pyrazolo[3,4-b]pyridin-6-one]
100 to 1000 nM | COc1cc(-c2cc(=O)[nH]c3n[nH]cc23)ccc1OCc1ccccc1 [Example 183, 4-[4-(benzyloxy)-3-methoxyphenyl]-2H,6H, 7H-pyrazolo[3,4-b]pyridin-6-one]
10 to 100 nM | COc1cc(C2CC(=O)Nc3n[nH]cc32)ccc1OCc1cc(C(F)(F)F)ccc1C(F)(F)F (stereo not shown) [Example 14, 4-(4-{[2,5-bis(trifluoromethyl)phenyl]methoxy}-3-methoxyphenyl)-2H,4H,5H,6H, 7H-pyrazolo[3,4-b]pyridin-6-one]
10 to 100 nM | COc1cc(C2CC(=O)Nc3ccsc32)ccc1OCc1ccccc1C(F)(F)F (stereo not shown) [Example 85, 7-(3-methoxy-4-{[2-(trifluoromethyl)phenyl]methoxy}phenyl)-4H,5H,6H, 7H-thieno[3,2-b]pyridin-5-one]
100 to 1000 nM | COc1cc(C2CC(=O)Nc3nn(C)cc32)ccc1OCc1ccccc1C(F)(F)F (stereo not shown) [Example 80, 4-(3-methoxy-4-{[2-(trifluoromethyl)phenyl]methoxy}phenyl)-2-methyl-2H,4H,5H,6H,7H-pyrazolo[3,4-b]pyridin-6-one]
100 to 1000 nM | COc1cc(C2CC(=O)Nc3n[nH]cc32)ccc1OCc1ccc(CC(=O)O)cc1C(F)(F)F (stereo not shown) [Example 151, 2-{4-[(2-methoxy-4-{6-oxo-2H,4H,5H,6H, 7H-pyrazolo[3,4-b]pyridin-4-yl}phenoxy)methyl]-3-(trifluoromethyl)phenyl}acetic acid]
10 to 100 nM | COc1cc(C2CC(=O)Nc3n[nH]cc32)c(F)cc1OCc1ccccc1C(F)(F)F (stereo not shown) [Example 75, 4-(2-fluoro-5-methoxy-4-{[2-(trifluoromethyl)phenyl]methoxy}phenyl)-2H,4H,5H, 6H, 7H-pyrazolo[3,4-b]pyridin-6-one]
10 to 100 nM | COc1cc(C2CC(=O)Nc3n[nH]cc32)ccc1OCc1ccc([N+](=O)[O-])cc1C(F)(F)F (stereo not shown) [Example 34, 4-(3-methoxy-4-{[4-nitro-2-(trifluoromethyl)phenyl]methoxy}phenyl)-2H,4H,5H,6H,7H-pyrazolo[3,4-b]pyridin-6-one]
10 to 100 nM | COc1ccc(COc2ccc(C3CC(=O)Nc4c[nH]nc43)cc2OC)c(C(F)(F)F)c1 (stereo not shown) [Example 92, 7-(3-methoxy-4-{[4-methoxy-2-(trifluoromethyl)phenyl]methoxy}phenyl)-2H,4H,5H,6H,7H-pyrazolo[4,3-b]pyridin-5-one]
100 to 1000 nM | O=C1CC(c2ccc(OCc3ccccc3C(F)(F)F)cn2)c2c[nH]nc2N1 (stereo not shown) [Example 63, 4-(5-{[2-(trifluoromethyl)phenyl]methoxy}pyridin-2-yl)-2H,4H,5H,6H, 7H-pyrazolo[3,4-b]pyridin-6-one]
100 to 1000 nM | COc1cc(C2CC(=O)Nc3n[nH]cc32)ccc1OCc1cccc(C(F)(F)F)c1F (stereo not shown) [Example 28, 4-(4-{[2-fluoro-3-(trifluoromethyl)phenyl]methoxy}-3-methoxyphenyl)-2H,4H,5H,6H,7H-pyrazolo[3,4-b]pyridin-6-one]

Molecular target: full length ERRα (Homo sapiens (Human), UniProt P11474)
Assay: Full Length ERRα Reporter Gene Assay
Format: cell-based
Conditions: SK-BR-3 cells, ERRα-RE luciferase reporter, overnight incubation
Description: Full Length ERRα Reporter Gene Assay
A method was established to quantitatively screen the potency of compounds with inverse agonistic activity on the nuclear receptor ERRα of the human species. The assay allows intra-cellular screening of ERRα inverse agonists in SK-BR-3 cells using an over-expression construct coding full length ERRα and a reporter construct containing an ERRα Response Element (RE) and a luciferase gene for read out. The activity is expressed in log IC50 values and can be used to determine SAR of compound families or to de-select compounds.
In this assay, reporter cells are obtained by transient co-transfection of two constructs in SK-BR-3 cells using standard transfection techniques. The first construct contains a response element of the nuclear receptor ERRα (Plasmid pLP2175, Reporter construct ERRα-RE/luc2P, cloned variant of ERRα_v2_synthRE, Switchgear Genomics, Catalog Number S900089). This sequence drives the transcription of the luciferase reporter gene in response to binding of an ERRα protein encoded by the second construct (Plasmid pLP2124: full length ERRα expression construct using pcDNA3.1/Hygro(+) as background, Invitrogen Catalog Number V87020).
The day after transfection, cells were plated into 96 well plates, test compound was added and the plates were incubated overnight. Subsequently, the firefly luciferase activity was quantified using luciferase detection reagent and luminescence readout.
Detailed Assay Description
Transfection is performed on pre-seeded SK-BR-3 cells in a T175 flask. One transfected T175 flask is sufficient for seeding 3 to 4 MW96 plates the next day, depending on the confluency of the transfected cells.
Two different media are used in this protocol for cell treatment: 1) Culture medium, i.e. McCoy's 5a with phenol red (BioWhittaker Supplier Number 12-688F), 10% FBS and 1× Penstrep.; and, 2) Assay medium, i.e. McCoy's 5a Medium phenol red free (HyClone Product Code SH30270.01) with 2% Charcoal Stripped FBS and 1× Penstrep. Compound dilutions are prepared in assay medium.
Cells are seeded at least 2 days in advance to allow the cells to adhere well to flask before transfection. Cells should be 50-80% confluent at the day of transfection.
SKBR3 cells were transfected with the transcriptional reporter construct pLP2175 and the ERRα expression construct pLP2124 (as described above).
68 μL of Lipofectamine LTX transfection reagent (Invitrogen Catalog Number 15338-100) was added dropwise to 8.9 ml Opti-MEM I Reduced Serum Medium (Gibco Catalog Number 51985-026) and incubated at room temperature for 5 to 20 minutes. 8.9 ml of this reagent mixture was added to 22 μg pLP2175+22 μg pLP2124 (ratio 1:1 and total volume 10 ml), and incubated at room temperature for 25 minutes.
10 minutes before adding the transfection mix to SKBR3 cells in a T175 flask, the culture medium was refreshed with 20 mL culture medium. Subsequently, the 10 mL DNA-Opti-MEM-Lipofectamine mixture was gently added to the cells, followed by overnight (16-24 hours) incubation at 37° C. and 5% CO2.
To harvest SKBR3 cells from a T175 flask, first the medium was removed. Subsequently, cells were washed with Phosphate Buffered Saline (PBS) (Lonza), after which the PBS was removed. To dissociate the cells, 2 ml of TrypLE Express (Invitrogen) was added to the flask, followed by incubation at 37° C. for 5 minutes. The flask was tapped until cells were detached from the bottom. Cells were collected in 8 mL of culture medium (McCoy's 5α, 10% FBS, penstrep), to achieve a single cell suspension. After cell count, cells were spun down for 5 minutes at 300 g. Next cell pellets were re-suspended to 25000 cells/80 μl assay medium (McCoy's 5a phenol red free, 2% charcoal stripped FBS, penstrep).
For compound screening, the cells were harvested (as described above). 80 μL of cell suspension (25,000 cells) was plated per well into a white, flat bottom, tissue culture treated, 96 well screening plates (Greiner). […]

Sequence of full length ERRα (P11474 whole entry): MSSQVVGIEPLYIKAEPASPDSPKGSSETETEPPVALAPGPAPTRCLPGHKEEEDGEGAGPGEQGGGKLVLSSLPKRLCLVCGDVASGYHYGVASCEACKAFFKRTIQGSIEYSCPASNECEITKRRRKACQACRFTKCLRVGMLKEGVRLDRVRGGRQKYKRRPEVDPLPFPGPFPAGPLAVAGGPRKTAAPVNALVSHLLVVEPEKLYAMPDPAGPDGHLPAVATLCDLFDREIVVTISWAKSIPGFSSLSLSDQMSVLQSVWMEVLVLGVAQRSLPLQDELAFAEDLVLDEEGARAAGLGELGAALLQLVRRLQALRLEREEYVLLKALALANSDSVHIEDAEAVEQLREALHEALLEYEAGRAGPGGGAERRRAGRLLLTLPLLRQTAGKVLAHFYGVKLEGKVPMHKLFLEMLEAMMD

mean pIC50 | Structure (SMILES)
≥ 6.5 | COc1cc(C2CC(=O)Nc3n[nH]cc32)ccc1OCc1ccc(CCO)cc1C(F)(F)F (single isomer, unassigned; (-)) [Example 212, (−)-4-(4-{[4-(2-hydroxyethyl)-2-(trifluoromethyl)phenyl]methoxy}-3-methoxyphenyl)-2H,4H,5H,6H,7H-pyrazolo[3,4-b]pyridin-6-one]

Same assay, conditions: SK-BR-3 cells, ERRα-RE luciferase reporter, overnight incubation; read-out: mean pIC50 (converted)

IC50 | Structure (SMILES)
≤ 316 nM | COc1ccc(COc2ccc(C3CC(=O)Nc4[nH]nnc43)cc2OC)c(C(F)(F)F)c1 (single isomer, unassigned; (-)) [Example 202, (−)-7-(3-methoxy-4-{[4-methoxy-2-(trifluoromethyl)phenyl]methoxy}phenyl)-3H,4H,5H,6H,7H-[1,2,3]triazolo[4,5-b]pyridin-5-one]
≤ 316 nM | CCc1ccc(COc2ccc(C3CC(=O)Nc4n[nH]cc43)cc2OC)c(C(F)(F)F)c1 (single isomer, unassigned; (+)) [Example 207, (+)-4-(4-{[4-ethyl-2-(trifluoromethyl)phenyl]methoxy}-3-methoxyphenyl)-2H,4H,5H,6H,7H-pyrazolo[3,4-b]pyridin-6-one]
≤ 316 nM | COc1cc(C2CC(=O)Nc3n[nH]cc32)ccc1OCc1ccc(C(C)=O)cc1C(F)(F)F (single isomer, unassigned; (-)) [Example 200, (−)-4-(4-{[4-acetyl-2-(trifluoromethyl)phenyl]methoxy}-3-methoxyphenyl)-2H,4H,5H,6H,7H-pyrazolo[3,4-b]pyridin-6-one]
≤ 316 nM | COc1ccc(COc2ccc(C3CC(=O)Nc4n[nH]cc43)cc2OC)c(C(F)(F)F)c1 (single isomer, unassigned; (-)) [Example 198, (−)-4-(3-methoxy-4-{[4-methoxy-2-(trifluoromethyl)phenyl]methoxy}phenyl)-2H,4H,5H,6H,7H-pyrazolo[3,4-b]pyridin-6-one]
